Tests used:
saliva flow = test: Case study: stimulated saliva output (Parafilm chewing, 2 min) after Toviaz and pilocarpine in a single individual; assay type: in vivo, human; details: after the administration of 8 mg Toviaz
Procedure: In this study, the effect of fesoterodine (Toviaz®), pilocarpine, the combination of the two, and placebo was measured in separate, yet identical, studies in a single individual.
The following protocol was for a pilot human study to evaluate the extent of saliva flow rate following the administration of 8 mg Toviaz® capsule and 5 or 7.5 mg pilocarpine HCl tablet after about 2.5 hrs from fesoterodine administration. The subject was a healthy, person. The subject performed the following: • 1. Fast the night before. • 2. No coffee or soda 8 hrs prior to taking the first dose. • 3. Record time voiding and measure urine if possible. • 4. Record extent of dryness of the mouth (Very dry, dry, and not dry). • 5. Record any adverse event. • 6. Chew a 1″×1″ piece of Parafilm (American National Can (Neenah, Wis. 54956) Bar code No. 7-466676999) over 2 minutes. • 7. Collect wetted Parafilm and saliva into a tared container (pre-weighed container). • 8. Measure the amount of saliva collected. • 9. Plot Saliva collected per 2 min time intervals against time.
The subject fasted overnight, but had 240 mL of water 1 hr prior to dose. The water continued ad lib until 1 hr pre and 1 hr post dose, other than 120 mL with Toviaz® and 120 mL with 5 mg Salagen® tablet. For lunch, the subject consumed a light sandwich. No coffee, soda, or caffeinated or alcoholic beverages was consumed.

saliva output = details: 5 mg of pilocarpine; cited from earlier work

CC[C@@H]1C(=O)OC[C@@H]1Cc1cncn1C [pilocarpine]
time of pilocarpine administration after Toviaz at which best results are obtained (saliva flow): 2.3 to 2.5 h | time of maximum saliva output after administration (saliva output): about 30 minutes

— patent US20120289566A1, “COMBINATIONS OF FESOTERODINE AND SALIVARY STIMULANTS FOR THE TREATMENT OF OVERACTIVE BLADDER” (THERAVIDA, INC., priority 2011, published 2012)
